Reference: article PMC4033315 (Journal of medicinal chemistry, 2013)

How the values were obtained:
α3β2 nAChR [1] = target: α3β2 nAChR (Rattus norvegicus, UniProt P04757+P12390); format: cell-based
α4β4 nAChR = α4β4 nAChR (Rattus norvegicus, UniProt P09483+P12392); format: cell-based
[2] = target: α6/α3β2β3 nAChR (α6/α3 chimera) (Rattus norvegicus, UniProt P04757+P12390+P12391+P43143); format: cell-based
α4β2 nAChR = α4β2 nAChR (Rattus norvegicus, UniProt P09483+P12390); format: cell-based
α7 nAChR = α7 nAChR (Rattus norvegicus, UniProt Q05941); format: cell-based
Chain of α7 nAChR (Q05941 23-502 limits assumed): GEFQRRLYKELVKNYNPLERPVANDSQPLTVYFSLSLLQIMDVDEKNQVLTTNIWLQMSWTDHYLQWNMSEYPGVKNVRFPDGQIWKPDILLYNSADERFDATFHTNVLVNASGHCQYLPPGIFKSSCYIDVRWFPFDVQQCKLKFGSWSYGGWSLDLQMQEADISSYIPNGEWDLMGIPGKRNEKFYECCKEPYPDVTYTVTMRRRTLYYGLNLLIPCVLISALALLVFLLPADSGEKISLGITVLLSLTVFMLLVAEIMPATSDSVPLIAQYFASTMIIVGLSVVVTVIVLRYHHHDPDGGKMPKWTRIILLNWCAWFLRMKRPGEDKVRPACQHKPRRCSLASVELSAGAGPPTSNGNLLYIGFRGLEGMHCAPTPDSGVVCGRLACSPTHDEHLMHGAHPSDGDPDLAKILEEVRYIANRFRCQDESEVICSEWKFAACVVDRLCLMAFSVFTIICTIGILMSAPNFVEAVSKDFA

α9α10 nAChR [3] = target: α9α10 nAChR (Rattus norvegicus, UniProt P43144+Q9JLB5); format: cell-based
Chain of α9α10 nAChR (Rattus norvegicus, UniProt P43144+Q9JLB5) (P43144 26-479 limits assumed): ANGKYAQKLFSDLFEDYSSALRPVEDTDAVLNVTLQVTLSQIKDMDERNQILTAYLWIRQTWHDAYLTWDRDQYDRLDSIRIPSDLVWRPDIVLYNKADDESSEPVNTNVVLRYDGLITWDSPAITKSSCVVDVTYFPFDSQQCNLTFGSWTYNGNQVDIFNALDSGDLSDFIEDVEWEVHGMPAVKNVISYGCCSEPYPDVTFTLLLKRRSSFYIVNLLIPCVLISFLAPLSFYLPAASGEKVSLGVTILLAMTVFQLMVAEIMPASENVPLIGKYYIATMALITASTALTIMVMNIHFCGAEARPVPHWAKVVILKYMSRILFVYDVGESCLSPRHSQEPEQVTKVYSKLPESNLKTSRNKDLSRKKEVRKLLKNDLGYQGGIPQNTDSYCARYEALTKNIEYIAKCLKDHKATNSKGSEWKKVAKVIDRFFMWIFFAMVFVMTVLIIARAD
Chain of α9α10 nAChR (Rattus norvegicus, UniProt P43144+Q9JLB5) (Q9JLB5 25-447 limits assumed): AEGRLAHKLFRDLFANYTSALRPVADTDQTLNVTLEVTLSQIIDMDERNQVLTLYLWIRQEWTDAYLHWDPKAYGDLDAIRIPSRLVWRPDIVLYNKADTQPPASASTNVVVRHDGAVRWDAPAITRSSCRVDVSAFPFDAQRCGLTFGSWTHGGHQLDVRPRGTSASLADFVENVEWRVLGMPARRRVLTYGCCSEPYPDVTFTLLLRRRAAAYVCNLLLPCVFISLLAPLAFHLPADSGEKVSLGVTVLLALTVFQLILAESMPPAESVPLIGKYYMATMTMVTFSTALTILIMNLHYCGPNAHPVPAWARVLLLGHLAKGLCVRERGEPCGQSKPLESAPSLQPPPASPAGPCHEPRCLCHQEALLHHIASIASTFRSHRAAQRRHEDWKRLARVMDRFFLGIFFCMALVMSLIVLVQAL

α2β2 nAChR = α2β2 nAChR (Rattus norvegicus, UniProt P12389+P12390); format: cell-based
Chain of α2β2 nAChR (P12389 28-511 limits assumed): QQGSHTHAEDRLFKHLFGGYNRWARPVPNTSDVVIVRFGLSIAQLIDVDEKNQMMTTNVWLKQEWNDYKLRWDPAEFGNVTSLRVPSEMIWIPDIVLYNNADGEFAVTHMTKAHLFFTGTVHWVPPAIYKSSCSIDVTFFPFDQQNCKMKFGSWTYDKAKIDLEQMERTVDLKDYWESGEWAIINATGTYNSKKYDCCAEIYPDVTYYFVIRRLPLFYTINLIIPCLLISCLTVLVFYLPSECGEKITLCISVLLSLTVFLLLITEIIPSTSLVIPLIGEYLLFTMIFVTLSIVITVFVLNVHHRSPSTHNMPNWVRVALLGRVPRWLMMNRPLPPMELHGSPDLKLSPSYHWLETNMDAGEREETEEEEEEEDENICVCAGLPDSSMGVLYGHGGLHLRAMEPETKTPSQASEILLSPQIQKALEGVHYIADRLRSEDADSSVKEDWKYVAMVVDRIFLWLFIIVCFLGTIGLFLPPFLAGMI
Chain of α2β2 nAChR (P12390 25-500 limits assumed): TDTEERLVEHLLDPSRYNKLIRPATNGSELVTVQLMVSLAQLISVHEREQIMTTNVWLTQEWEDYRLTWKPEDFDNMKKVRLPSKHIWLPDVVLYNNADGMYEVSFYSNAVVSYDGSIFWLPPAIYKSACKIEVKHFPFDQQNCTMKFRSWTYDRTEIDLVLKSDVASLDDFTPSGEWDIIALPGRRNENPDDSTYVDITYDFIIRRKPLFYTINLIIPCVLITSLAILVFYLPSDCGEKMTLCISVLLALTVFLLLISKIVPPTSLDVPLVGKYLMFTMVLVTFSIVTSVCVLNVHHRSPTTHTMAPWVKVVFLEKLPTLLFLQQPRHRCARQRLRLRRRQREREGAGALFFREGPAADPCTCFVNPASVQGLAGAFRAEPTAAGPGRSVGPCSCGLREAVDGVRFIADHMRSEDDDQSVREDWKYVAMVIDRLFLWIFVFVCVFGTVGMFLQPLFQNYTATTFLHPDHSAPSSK

α6/α3β4 nAChR = conditions: cited from earlier work
α6/α3β2β3 nAChR = conditions: cited from earlier work
α3β2 nAChR [4] = conditions: cited from earlier work
α9α10 nAChR [5] = conditions: cited from earlier work

Chain of α4β4 nAChR (P09483 31-630 limits assumed): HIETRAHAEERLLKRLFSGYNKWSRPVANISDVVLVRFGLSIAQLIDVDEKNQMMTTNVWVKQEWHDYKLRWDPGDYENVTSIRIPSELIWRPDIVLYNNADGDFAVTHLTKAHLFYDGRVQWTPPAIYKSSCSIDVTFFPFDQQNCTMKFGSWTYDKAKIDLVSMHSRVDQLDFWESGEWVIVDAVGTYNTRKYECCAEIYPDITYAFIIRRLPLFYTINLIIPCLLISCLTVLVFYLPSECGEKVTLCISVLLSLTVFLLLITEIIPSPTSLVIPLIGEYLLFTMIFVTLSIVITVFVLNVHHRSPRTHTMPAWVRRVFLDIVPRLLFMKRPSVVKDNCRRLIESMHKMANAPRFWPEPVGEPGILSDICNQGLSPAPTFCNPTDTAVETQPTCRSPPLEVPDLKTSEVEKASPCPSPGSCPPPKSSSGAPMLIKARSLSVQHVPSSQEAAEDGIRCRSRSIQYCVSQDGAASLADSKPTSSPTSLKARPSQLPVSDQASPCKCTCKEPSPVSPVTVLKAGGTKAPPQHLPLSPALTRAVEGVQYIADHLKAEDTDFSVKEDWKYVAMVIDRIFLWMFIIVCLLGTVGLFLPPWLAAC
Chain of α4β4 nAChR (P12392 22-495 limits assumed): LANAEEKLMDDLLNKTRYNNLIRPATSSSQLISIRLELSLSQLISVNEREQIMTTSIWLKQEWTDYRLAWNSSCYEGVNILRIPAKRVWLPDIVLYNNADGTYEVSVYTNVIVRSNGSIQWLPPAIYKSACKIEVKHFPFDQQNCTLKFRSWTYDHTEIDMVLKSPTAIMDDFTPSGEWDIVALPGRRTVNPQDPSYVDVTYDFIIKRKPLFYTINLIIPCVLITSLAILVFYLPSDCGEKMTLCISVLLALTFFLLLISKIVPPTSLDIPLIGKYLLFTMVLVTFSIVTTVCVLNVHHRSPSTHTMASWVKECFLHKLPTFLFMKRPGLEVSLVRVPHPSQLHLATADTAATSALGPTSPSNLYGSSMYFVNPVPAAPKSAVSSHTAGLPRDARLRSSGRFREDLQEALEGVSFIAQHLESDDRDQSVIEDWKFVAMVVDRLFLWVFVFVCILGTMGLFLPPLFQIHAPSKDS
Chain of α3β2 nAChR (Rattus norvegicus, UniProt P04757+P12390) (P04757 26-499 limits assumed): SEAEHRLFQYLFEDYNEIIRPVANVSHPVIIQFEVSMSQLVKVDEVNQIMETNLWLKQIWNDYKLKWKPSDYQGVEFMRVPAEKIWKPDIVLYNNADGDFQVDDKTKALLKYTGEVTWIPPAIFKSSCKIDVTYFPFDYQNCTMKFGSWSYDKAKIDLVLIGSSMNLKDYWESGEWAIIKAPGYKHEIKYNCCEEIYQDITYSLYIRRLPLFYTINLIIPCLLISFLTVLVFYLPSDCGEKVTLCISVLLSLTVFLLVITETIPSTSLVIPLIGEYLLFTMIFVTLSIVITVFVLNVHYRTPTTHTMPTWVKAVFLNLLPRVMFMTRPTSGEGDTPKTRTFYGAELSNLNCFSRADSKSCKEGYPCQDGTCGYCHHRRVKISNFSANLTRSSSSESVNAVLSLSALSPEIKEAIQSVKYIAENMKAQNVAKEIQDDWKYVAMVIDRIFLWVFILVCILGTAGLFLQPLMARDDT
Chain of α3β2 nAChR (Rattus norvegicus, UniProt P04757+P12390) (P12390 25-500 limits assumed): as the sequence (P12390 25-500 limits assumed) above
Chain of α4β2 nAChR (P09483 31-630 limits assumed): as the sequence (P09483 31-630 limits assumed) above
Chain of α4β2 nAChR (P12390 25-500 limits assumed): as the sequence (P12390 25-500 limits assumed) above

Compound	block at 10^−5 M (α3β2 nAChR [1])	block of ACh-evoked currents (α3β2 nAChR [1])	block at 10^−5 M (α4β4 nAChR)	block of ACh-evoked currents (α4β4 nAChR)	block at 10^−5 M [2]	block at 10^−5 M (α4β2 nAChR)	block at 10^−5 M (α7 nAChR)	block of ACh-evoked currents (α7 nAChR)	block at 10^−5 M (α9α10 nAChR [3])	block of ACh-evoked currents (α9α10 nAChR [3])	block at 10^−5 M (α2β2 nAChR)	IC50 (α6/α3β4 nAChR) [nM]	IC50 (α6/α3β2β3 nAChR) [nM]	IC50 (α3β2 nAChR [4]) [nM]	IC50 (α9α10 nAChR [5]) [nM]
CC[C@H](C)[C@@H]1NC(=O)[C@@H]2CCCN2C(=O)[C@H](CO)NC(=O)[C@H](CCSC)NC(=O)[C@H](C)NC(=O)[C@H](CO)NC(=O)[C@@H]2CSSC[C@H](NC(=O)CN)C(=O)N[C@@H](CSSC[C@@H](C(N)=O)NC1=O)C(=O)N[C@@H](CO)C(=O)N[C@@H](Cc1c[nH]cn1)C(=O)N1CCC[C@H]1C(=O)N[C@@H](C(C)C)C(=O)N2 [TxID]	c less than 50% block at 10^−5 M. All receptors are rat except for α1β1δε, which is mouse.	no inhibition	c less than 50% block at 10^−5 M. All receptors are rat except for α1β1δε, which is mouse.	no inhibition	c less than 50% block at 10^−5 M. All receptors are rat except for α1β1δε, which is mouse.	c less than 50% block at 10^−5 M. All receptors are rat except for α1β1δε, which is mouse.	c less than 50% block at 10^−5 M. All receptors are rat except for α1β1δε, which is mouse.	no inhibition	c less than 50% block at 10^−5 M. All receptors are rat except for α1β1δε, which is mouse.	no inhibition	c less than 50% block at 10^−5 M. All receptors are rat except for α1β1δε, which is mouse.				
Vc1.1												980	140	7300	19
